{"source": "paper PMC8448738", "about": "“Structural insight into the mechanism of energy transfer in cyanobacterial phycobilisomes” (Nature Communications, 2021)", "experiment_in_all_cases": "cryo-EM structure of intact phycobilisome, […] Å", "assay_type_in_all_cases": "binding", "key": {"[1]": {"target": "T1, ApcB (Synechococcus 7002) (Picosynechococcus sp. PCC 7002, UniProt O68970)", "T1 construct": "native, within intact phycobilisome purified from cells; mildly glutaraldehyde cross-linked", "T1 sequence (O68970 1-161)": "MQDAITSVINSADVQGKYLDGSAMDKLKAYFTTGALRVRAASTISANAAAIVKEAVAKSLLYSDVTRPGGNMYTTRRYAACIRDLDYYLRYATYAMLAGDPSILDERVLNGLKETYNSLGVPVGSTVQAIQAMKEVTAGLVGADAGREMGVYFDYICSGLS", "conditions": "covalent; native chromophore"}, "[2]": {"target": "T2, ApcF (Synechococcus 7002) (Picosynechococcus sp. PCC 7002, UniProt O68967)", "T2 construct": "native, within intact phycobilisome purified from cells; mildly glutaraldehyde cross-linked; trimer A3", "conditions": "covalent; native chromophore"}, "[3]": {"target": "T3, ApcE (LCM), Synechococcus 7002 (Picosynechococcus sp. PCC 7002, UniProt O68973)", "T3 construct": "native, within intact phycobilisome; N-terminal alpha-LCM domain holds the bilin; three REP domains", "T3 sequence (O68973 1-886)": "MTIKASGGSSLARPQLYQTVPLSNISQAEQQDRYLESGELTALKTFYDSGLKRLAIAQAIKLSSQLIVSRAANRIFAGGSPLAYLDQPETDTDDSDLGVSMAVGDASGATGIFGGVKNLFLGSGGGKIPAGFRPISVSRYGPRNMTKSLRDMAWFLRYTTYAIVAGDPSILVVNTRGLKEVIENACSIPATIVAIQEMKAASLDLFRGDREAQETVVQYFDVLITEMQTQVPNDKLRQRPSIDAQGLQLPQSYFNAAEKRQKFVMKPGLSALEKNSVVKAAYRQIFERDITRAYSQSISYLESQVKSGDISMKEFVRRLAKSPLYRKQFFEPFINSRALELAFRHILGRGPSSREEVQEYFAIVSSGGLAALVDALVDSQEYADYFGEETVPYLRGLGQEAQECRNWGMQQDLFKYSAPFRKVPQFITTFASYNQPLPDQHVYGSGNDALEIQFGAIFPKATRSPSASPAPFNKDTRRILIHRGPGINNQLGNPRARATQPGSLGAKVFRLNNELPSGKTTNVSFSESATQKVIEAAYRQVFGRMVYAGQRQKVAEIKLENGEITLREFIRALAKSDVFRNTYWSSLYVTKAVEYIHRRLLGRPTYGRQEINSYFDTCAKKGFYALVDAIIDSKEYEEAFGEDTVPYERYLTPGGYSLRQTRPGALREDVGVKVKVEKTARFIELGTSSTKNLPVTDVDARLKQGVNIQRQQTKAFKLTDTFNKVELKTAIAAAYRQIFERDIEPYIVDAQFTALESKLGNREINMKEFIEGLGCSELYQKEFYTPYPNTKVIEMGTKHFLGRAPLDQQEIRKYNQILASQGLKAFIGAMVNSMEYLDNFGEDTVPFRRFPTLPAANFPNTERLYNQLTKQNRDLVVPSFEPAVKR", "conditions": "covalent; native chromophore; in alpha-LCM domain"}, "[4]": {"target": "T4, ApcA (Synechococcus 7002) (Picosynechococcus sp. PCC 7002, UniProt B1XQM2)", "T4 construct": "native, within intact phycobilisome purified from cells; mildly glutaraldehyde cross-linked", "T4 sequence (B1XQM2 2-161)": "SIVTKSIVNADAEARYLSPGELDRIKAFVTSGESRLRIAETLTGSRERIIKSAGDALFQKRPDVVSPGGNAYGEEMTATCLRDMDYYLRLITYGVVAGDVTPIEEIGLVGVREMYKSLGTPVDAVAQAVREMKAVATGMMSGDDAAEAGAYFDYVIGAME", "conditions": "covalent; native chromophore"}, "[5]": {"target": "T5, ApcD (Synechococcus 7002) (Picosynechococcus sp. PCC 7002, UniProt O68966)", "T5 construct": "native, within intact phycobilisome purified from cells; mildly glutaraldehyde cross-linked; paired with ApcB in trimer A4", "conditions": "covalent; native chromophore"}}, "data": [{"molecule": "CC=C1C(=Cc2[nH]c(C=C3N=C(C=C4NC(=O)C(CC)=C4C)C(C)=C3CCC(=O)O)c(CCC(=O)O)c2C)NC(=O)C1C", "note": "(centres unmarked) [phycocyanobilin]", "values": [{"measurement": "cryo-EM structure of intact phycobilisome, 3.5 Å", "setting": "[1]", "result": "Y116 is located between αApcD and the bilin of ApcB^A4-II"}, {"measurement": "cryo-EM structure of intact phycobilisome, 3.5 Å", "setting": "[2]", "result": "The bilins of ApcF (orange), ApcE (red), and ApcA (forest green) are shown"}, {"measurement": "cryo-EM structure of intact phycobilisome, 3.5 Å", "setting": "[3]", "result": "The bilins of ApcF (orange), ApcE (red), and ApcA (forest green) are shown"}, {"measurement": "cryo-EM structure of intact phycobilisome, 3.5 Å", "setting": "[4]", "result": "The bilins of ApcF (orange), ApcE (red), and ApcA (forest green) are shown"}, {"measurement": "cryo-EM structure of intact phycobilisome, 3.5 Å", "setting": "[5]", "result": "Only the bilin of ApcD is shown with its ring-A through ring-D indicated."}]}]}
